Measured values reported in patent US20260297542A1, “HERBICIDE RESISTANT PLANTS” (SYNGENTA CROP PROTECTION AG, priority 2023, published 2026).
Positions count from the first letter of the chain named.

What was measured:
Test in all cases: E. coli hemG growth inhibition by herbicide, AtPPO1 variant
Format in all cases: cell-based
Conditions in all cases: read-out: percentage growth inhibition
AtPPO1 E212Y = target: T1, AtPPO1 E212Y (Arabidopsis thaliana, UniProt P55826, E212Y)
T1 construct: expressed in transfected cells; host or cells: E. coli BL21(DE3) hemG (hemG replaced by CmR), pET24a plasmid
T1 sequence (P55826 35-537 E212Y): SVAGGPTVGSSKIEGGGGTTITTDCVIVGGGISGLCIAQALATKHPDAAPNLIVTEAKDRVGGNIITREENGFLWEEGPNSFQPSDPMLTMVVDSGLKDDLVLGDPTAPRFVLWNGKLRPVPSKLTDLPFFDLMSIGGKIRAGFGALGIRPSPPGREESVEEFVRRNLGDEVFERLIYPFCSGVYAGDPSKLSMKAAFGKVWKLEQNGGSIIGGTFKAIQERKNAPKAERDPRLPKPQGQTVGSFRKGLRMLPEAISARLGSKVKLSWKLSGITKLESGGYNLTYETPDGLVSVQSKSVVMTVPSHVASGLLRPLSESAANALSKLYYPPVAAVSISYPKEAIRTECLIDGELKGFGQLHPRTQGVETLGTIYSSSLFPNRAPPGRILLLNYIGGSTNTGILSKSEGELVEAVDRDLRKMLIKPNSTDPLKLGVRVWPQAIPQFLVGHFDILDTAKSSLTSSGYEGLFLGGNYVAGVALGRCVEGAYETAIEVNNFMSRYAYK
Summary of the method: (§1)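 Variant plasmids were transformed into hemG-null BL21(DE3) and precultured 24 h with hematin. Washed cells were diluted 1:100 into Terrific broth containing 0.1 mM IPTG and herbicide (6.25 ppm 0 or E; 0.78 ppm B) or DMSO. After 24 h at 37° C, OD600 gave percent inhibition.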

AtPPO1 V365L = target: T2, AtPPO1 V365L (Arabidopsis thaliana, UniProt P55826, V365L)
T2 construct: expressed in transfected cells; host or cells: E. coli BL21(DE3) hemG (pET24a, T7 promoter)
T2 sequence (P55826 35-537 V365L): T1 sequence (P55826 35-537 E212Y) with Y178E, V331L
Summary of the method: as §1

AtPPO1 V127I = target: T3, AtPPO1 V127I (Arabidopsis thaliana, UniProt P55826, V127I)
T3 construct: expressed in transfected cells; host or cells: E. coli BL21(DE3) hemG (hemG replaced by CmR), pET24a plasmid
T3 sequence (P55826 35-537 V127I): T1 sequence (P55826 35-537 E212Y) with V93I, Y178E
Summary of the method: as §1

AtPPO1 Y361D = target: T4, AtPPO1 Y361D (Arabidopsis thaliana, UniProt P55826, Y361D)
T4 construct: expressed in transfected cells; host or cells: E. coli BL21(DE3) hemG (pET24a, T7 promoter)
T4 sequence (P55826 35-537 Y361D): T1 sequence (P55826 35-537 E212Y) with Y178E, Y327D
Summary of the method: as §1

| SMILES | inhibition at 6.25 ppm (AtPPO1 E212Y) [%] | inhibition at 6.25 ppm (AtPPO1 V365L) [%] | inhibition at 6.25 ppm (AtPPO1 V127I) [%] | inhibition at 6.25 ppm (AtPPO1 Y361D) [%] | inhibition at 0.78 ppm (AtPPO1 E212Y) [%] | inhibition at 0.78 ppm (AtPPO1 V365L) [%] | inhibition at 0.78 ppm (AtPPO1 V127I) [%] | inhibition at 0.78 ppm (AtPPO1 Y361D) [%] |
| --- | --- | --- | --- | --- | --- | --- | --- | --- |
| CC(C)N(C)S(=O)(=O)NC(=O)c1cc(-n2c(=O)cc(C(F)(F)F)n(C)c2=O)c(F)cc1Cl [Herbicide E, saflufenacil] | 65 | 27 | 69 | 14 | – | – | – | – |
| C#CCN1C(=O)C(F)(F)Oc2cc(F)c(-n3c(=O)n(C)c(=S)n(C)c3=O)cc21 [Herbicide B, trifludimoxazin] | – | – | – | – | 25 | 11 | 28 | 20 |
| CCOC(=O)[C@]1(C)CC(c2cc(-n3c(=O)n(C)c(=S)n(C)c3=O)c(F)cc2Cl)=NO1 [Herbicide D, ethyl (5S)-3-[2-chloro-5-(3,5-dimethyl-2,6-dioxo-4-thioxo-1,3,5-triazinan-1-yl)-4-fluoro-phenyl]-5-methyl-4H-isoxazole-5-carboxylate] | 27 | 55 | 23 | 33 | – | – | – | – |
